Data from ChEMBL document CHEMBL1201862, “PubChem BioAssay data set” (2004).
Values belong to the compound of their own block, whether it stands above or below them. Activity calls are given as the source filed them.

What was measured:
[1] = target: T1, Neuropeptide Y receptor type 2 (Homo sapiens, UniProt P49146); assay: Fluorescence-based counterscreen for agonists of NPY-Y1: cell-based high-throughput dose response assay for agonists of NPY-Y2.; type: functional
HEK293 = assay: Fluorescence-based counterscreen for potentiators or agonists of NPY-Y1: cell-based high-throughput dose response assay for inhibitors of cyclic nucleotide gated ion channel (CNGC) activity. In this assay, the parental HEK293 cell line transfected with a cyclic-nucleotide gated ion channel (CNGC)-based cAMP sensor is used to measure inhibition of isoproterenol-induced CNGC …; type: functional; details: Homo sapiens
[2] = target: T2, Neuropeptide Y receptor type 1 (Homo sapiens, UniProt P25929); assay: Fluorescence-based dose response cell-based high-throughput screening assay for agonists of NPY-Y1. [Related pubchem assays: 1697 (Screening assay (NPY-Y1 agonists).), 1359 (Screening assay (NPY-Y2 potentiators or agonists).), 1304 (Screening assay (NPY-Y1 potentiators or agonists).), 1704 (Screening assay (CNGC inhibitors).), 1791 (Summary AID.)]; type: functional
[3] = Counterscreen for IDE inhibitors: Luminescence-based cell-based high throughput dose response assay to identify compounds that are cytotoxic to HEK cells. [Related pubchem assays: 434962 (Primary screen (IDE inhibitors in singlicate)), 449730 (Counterscreen (Cytotoxicity in triplicate)), 435028 (Confirmation (IDE inhibitors in triplicate)) …; type: functional; details: HEK293
Insulin-degrading enzyme = target: T3, Insulin-degrading enzyme (Homo sapiens, UniProt P14735); assay: Dose Response: Fluorescence polarization-based cell-based high throughput dose response assay for inhibitors of insulin-degrading enzyme (IDE). [Related pubchem assays: 434962 (Primary screen (IDE inhibitors in singlicate)), 449730 (Counterscreen (Cytotoxicity in triplicate)), 435028 (Confirmation (IDE inhibitors in triplicate)), 434984 (Summary …; type: functional
T3 sequence (P14735 whole entry): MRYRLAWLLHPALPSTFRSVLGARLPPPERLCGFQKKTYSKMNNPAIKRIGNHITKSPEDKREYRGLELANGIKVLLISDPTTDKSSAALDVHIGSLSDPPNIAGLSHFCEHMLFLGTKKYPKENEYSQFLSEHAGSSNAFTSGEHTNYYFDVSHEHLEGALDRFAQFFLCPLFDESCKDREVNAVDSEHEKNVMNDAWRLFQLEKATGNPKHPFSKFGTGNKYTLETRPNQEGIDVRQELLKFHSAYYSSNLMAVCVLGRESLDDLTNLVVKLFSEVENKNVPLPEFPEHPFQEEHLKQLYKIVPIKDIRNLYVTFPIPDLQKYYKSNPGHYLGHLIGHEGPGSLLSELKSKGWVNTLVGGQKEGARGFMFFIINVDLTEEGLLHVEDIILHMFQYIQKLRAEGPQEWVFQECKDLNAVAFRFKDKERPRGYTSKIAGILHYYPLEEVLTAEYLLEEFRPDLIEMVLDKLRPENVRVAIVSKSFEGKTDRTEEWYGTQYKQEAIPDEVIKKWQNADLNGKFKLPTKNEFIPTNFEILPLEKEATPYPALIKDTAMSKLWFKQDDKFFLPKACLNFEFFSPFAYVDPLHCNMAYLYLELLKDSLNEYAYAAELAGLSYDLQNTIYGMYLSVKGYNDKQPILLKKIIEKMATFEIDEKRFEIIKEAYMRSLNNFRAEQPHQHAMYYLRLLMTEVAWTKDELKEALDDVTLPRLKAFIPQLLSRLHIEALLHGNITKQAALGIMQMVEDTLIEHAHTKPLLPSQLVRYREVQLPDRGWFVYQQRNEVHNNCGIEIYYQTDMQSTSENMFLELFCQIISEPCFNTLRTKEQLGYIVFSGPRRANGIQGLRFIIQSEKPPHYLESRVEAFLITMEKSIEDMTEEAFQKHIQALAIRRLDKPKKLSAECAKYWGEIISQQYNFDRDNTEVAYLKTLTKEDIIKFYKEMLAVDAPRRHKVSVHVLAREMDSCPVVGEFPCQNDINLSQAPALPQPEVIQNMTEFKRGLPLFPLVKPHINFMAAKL

Leucine aminopeptidase = target: T4, Leucine aminopeptidase (Plasmodium falciparum 3D7, UniProt Q8IL11); assay: P. falciparum M17LAP inhibitors, primary screen, biochemical, fluorogenic H-Leu-NHMec substrate, 1536-well (AID 1619); type: functional
T4 sequence (Q8IL11 whole entry): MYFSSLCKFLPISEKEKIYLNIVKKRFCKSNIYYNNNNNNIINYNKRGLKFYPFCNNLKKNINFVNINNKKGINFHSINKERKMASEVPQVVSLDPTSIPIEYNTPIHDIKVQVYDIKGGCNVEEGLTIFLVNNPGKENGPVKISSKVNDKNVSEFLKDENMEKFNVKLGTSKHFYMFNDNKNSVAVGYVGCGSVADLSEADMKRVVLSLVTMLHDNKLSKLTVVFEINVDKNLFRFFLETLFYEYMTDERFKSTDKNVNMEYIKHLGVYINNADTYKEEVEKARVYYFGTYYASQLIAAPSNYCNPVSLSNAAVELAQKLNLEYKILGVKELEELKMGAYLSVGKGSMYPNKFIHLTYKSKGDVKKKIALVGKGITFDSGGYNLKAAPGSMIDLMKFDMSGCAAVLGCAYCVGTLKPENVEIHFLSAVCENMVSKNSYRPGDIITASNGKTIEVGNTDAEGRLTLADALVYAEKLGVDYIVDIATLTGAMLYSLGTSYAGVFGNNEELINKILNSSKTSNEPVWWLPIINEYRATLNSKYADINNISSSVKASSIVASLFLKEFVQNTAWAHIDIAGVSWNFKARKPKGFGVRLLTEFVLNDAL

Aspartyl aminopeptidase = Aspartyl aminopeptidase (Plasmodium falciparum 3D7, UniProt Q8I2J3)
Procathepsin L = Procathepsin L (Homo sapiens, UniProt P07711)
[4] = target: Mothers against decapentaplegic homolog 3 (Homo sapiens, UniProt P84022); assay: SMAD3 transcription factor inhibitors, dose response (AID 715); type: functional
[5] = target: Sphingosine 1-phosphate receptor 2 (Homo sapiens, UniProt O95136); assay: Dose Response Cell Based Assay for Agonists of the S1P2 Receptor of Purchased Analogues. [Related pubchem assays: 729, 843, 854, 736 ]; type: functional
Estrogen receptor beta = Estrogen receptor beta (Homo sapiens, UniProt Q92731); assay: ERβ–SRC-3 coactivator interaction inhibitors, confirmation, orthogonal assay, biochemical, ELISA, streptavidin-HRP readout (AID 1060)
[6] = inhibitors of intracellular T. cruzi replication, confirmation, NIH3T3 host cells, beta-gal luminescence (AID 2044); type: functional, cell-based;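 also: intracellular parasites grown in NIH/3T3 mouse fibroblasts as host cells; luminescent beta-galactosidase reporter signal from transgenic T. cruzi replicating inside host cells; inhibitors lower the luminescence signal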
[7] = cytotoxicity toward NIH3T3 fibroblasts, dose response, counter-screen, cell-based, ATP luminescence, mouse fibroblasts (AID 2010); type: functional;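 also: cells exposed to compound for about 90 hours before reading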
[8] = target: Sphingosine 1-phosphate receptor 4 (Homo sapiens, UniProt O95977); assay: Fluorescence dose response cell-based high throughput screening assay for antagonists of the Sphingosine 1-Phosphate Receptor 4 (S1P4). [Related pubchem assays: 1524 (Confirmation in triplicates.), 1510 (Primary screen.)]; type: functional
[9] = target: Sphingosine 1-phosphate receptor 1 (Homo sapiens, UniProt P21453); type: functional;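 also: Tango beta-arrestin reporter U2OS cells stimulated with S1P near its EC80; inhibitor potency meaning antagonism of receptor activation by the natural agonist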
[10] = target: T5, Polyadenylate-binding protein 1 (Homo sapiens, UniProt P11940); assay: PABP1 MLLE–PAM2 interaction inhibitors, dose response, miRNA deadenylation inhibitor project, biochemical, fluorescence polarization, Cy5-PAM2 peptide, secondary (AID 602260); type: functional; details: read-out: IC50_Mean
[11] = target: T5, Polyadenylate-binding protein 1; assay: PABP1 MLLE–PAM2 binding inhibitor potency, dose response, biochemical, fluorescence polarization, FITC-PAM2 peptide (AID 602259); type: functional; details: read-out: IC50_Mean
Large T antigen = Large T antigen (Simian virus 40, UniProt P03070); type: functional, Betapolyomavirus macacae;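 also: Confirmatory-stage PubChem screen for compounds that inhibit SV40 T antigen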
Estrogen receptor = target: T6, Estrogen receptor (Homo sapiens, UniProt P03372); assay: potentiators of ERα–SRC-1 coactivator binding, dose response, biochemical, TR-FRET, ERα LBD (AID 737)
T6 sequence (P03372 whole entry): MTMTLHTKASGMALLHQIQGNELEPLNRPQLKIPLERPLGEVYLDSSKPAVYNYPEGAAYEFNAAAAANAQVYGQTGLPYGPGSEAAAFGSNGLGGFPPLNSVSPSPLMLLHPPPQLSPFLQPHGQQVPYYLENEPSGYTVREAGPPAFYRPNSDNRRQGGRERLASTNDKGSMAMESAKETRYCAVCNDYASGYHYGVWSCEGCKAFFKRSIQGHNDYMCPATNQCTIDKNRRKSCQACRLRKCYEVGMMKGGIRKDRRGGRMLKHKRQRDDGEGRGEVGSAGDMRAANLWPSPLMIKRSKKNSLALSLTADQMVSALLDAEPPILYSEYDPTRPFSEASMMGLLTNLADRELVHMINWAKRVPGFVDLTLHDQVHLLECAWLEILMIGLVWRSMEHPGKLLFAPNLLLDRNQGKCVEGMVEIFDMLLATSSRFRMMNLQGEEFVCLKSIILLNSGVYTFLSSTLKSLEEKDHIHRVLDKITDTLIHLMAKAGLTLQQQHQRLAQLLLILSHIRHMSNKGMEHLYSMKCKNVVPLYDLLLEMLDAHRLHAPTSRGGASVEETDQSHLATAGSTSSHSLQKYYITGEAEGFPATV

[12] = cytotoxicity in HPDE-C7 cells, cell-based, fluorescence, HTS (AID 430); type: functional; details: Homo sapiens
[13] = cytotoxicity in KRAS-transformed pancreatic duct cells, primary screen, cell-based, fluorescence, HTS (AID 431); type: functional; details: Homo sapiens;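 also: cell line used: HPDE-C7K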
[14] = target: T2, Neuropeptide Y receptor type 1; type: functional
[15] = target: Luciferin 4-monooxygenase (Photinus pyralis, UniProt P08659); assay: firefly luciferase enzyme inhibitors, dose response, biochemical, luminescence (AID 1891)
[16] = Luminescence Cell-Based Dose Confirmation HTS to Identify Inhibitors of Platelet Dense Granule Release. [Related pubchem assays: 1663 (Primary HTS), 1678 (Summary of Project)]; type: functional
[17] = target: T1, Neuropeptide Y receptor type 2; type: functional, cell-based
NADPH oxidase 1 = NADPH oxidase 1 (Homo sapiens, UniProt Q9Y5S8); type: functional, cell-based;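 also: Cell-based assay with luminescence read-out, IC50 derived from inhibitor dose-response curves; intracellular ROS from endogenous NOX1 in intact HT29 colon cancer cells; potency of inhibitors that lower the ROS luminescence signal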
Chain of NADPH oxidase 1 (Q9Y5S8 whole entry): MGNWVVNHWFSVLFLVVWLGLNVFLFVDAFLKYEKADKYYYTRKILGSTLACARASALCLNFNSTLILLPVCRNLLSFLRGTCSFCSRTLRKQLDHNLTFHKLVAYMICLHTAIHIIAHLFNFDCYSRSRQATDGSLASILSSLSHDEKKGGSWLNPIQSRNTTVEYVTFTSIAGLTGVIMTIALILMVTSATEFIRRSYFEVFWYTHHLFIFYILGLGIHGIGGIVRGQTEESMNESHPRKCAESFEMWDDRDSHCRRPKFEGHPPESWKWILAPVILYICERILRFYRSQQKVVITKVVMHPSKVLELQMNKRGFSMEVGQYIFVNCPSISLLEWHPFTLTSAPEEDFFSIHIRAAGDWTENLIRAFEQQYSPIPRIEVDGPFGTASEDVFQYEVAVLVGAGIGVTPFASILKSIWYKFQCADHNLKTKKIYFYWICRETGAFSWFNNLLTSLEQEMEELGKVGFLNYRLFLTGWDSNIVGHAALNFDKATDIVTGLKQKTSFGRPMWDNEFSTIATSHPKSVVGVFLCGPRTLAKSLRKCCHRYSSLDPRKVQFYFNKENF

T2 sequence (P25929 whole entry): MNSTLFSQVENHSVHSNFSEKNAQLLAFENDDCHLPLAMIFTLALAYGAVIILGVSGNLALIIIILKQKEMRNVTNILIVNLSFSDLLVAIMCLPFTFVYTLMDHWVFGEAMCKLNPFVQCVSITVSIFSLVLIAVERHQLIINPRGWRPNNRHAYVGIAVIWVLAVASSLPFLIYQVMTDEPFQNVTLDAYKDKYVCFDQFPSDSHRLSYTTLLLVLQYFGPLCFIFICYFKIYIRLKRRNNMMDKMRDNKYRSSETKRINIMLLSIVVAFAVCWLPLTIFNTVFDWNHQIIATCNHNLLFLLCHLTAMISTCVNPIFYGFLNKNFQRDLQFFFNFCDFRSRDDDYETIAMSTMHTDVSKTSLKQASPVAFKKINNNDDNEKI
T5 sequence (P11940 whole entry): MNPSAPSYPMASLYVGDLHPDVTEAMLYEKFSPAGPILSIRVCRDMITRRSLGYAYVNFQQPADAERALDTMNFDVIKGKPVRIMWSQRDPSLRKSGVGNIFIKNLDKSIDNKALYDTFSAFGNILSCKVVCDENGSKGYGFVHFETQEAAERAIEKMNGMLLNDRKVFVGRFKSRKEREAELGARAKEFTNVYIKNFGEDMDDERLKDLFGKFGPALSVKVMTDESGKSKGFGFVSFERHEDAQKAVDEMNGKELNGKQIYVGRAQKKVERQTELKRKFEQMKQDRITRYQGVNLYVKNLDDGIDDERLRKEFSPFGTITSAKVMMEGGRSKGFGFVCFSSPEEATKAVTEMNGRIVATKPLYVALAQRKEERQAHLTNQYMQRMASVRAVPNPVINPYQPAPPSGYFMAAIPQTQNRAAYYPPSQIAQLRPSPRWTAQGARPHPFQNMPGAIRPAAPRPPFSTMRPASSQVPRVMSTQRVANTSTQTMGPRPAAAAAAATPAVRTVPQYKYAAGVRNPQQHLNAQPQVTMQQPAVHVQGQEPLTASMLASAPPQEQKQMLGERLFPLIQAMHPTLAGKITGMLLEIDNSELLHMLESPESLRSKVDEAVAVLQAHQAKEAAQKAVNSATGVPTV
T1 sequence (P49146 whole entry): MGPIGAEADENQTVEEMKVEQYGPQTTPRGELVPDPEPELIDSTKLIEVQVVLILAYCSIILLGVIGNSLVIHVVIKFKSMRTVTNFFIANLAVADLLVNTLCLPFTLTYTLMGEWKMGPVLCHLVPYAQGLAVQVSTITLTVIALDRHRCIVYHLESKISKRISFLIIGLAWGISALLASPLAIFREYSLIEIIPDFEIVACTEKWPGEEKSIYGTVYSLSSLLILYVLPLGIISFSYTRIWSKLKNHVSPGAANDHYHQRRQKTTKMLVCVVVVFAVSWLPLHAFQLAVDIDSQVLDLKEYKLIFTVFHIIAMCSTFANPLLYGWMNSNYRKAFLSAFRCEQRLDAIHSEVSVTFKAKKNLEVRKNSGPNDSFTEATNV
Chain of Estrogen receptor beta (Q92731 whole entry): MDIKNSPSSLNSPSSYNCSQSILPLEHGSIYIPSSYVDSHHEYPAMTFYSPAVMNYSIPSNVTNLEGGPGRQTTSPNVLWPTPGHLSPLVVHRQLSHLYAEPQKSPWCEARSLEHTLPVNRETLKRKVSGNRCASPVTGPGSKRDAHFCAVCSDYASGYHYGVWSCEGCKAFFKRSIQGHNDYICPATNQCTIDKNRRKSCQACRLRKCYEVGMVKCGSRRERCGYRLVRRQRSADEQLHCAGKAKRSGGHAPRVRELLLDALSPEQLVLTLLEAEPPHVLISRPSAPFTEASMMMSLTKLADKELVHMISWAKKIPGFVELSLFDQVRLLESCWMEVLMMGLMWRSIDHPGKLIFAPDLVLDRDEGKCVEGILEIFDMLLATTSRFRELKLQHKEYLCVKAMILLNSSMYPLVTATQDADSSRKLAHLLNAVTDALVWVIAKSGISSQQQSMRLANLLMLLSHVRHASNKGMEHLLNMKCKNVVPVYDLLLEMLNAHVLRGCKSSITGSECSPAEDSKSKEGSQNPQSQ
Chain of Large T antigen (P03070 whole entry, the tested form may be a part): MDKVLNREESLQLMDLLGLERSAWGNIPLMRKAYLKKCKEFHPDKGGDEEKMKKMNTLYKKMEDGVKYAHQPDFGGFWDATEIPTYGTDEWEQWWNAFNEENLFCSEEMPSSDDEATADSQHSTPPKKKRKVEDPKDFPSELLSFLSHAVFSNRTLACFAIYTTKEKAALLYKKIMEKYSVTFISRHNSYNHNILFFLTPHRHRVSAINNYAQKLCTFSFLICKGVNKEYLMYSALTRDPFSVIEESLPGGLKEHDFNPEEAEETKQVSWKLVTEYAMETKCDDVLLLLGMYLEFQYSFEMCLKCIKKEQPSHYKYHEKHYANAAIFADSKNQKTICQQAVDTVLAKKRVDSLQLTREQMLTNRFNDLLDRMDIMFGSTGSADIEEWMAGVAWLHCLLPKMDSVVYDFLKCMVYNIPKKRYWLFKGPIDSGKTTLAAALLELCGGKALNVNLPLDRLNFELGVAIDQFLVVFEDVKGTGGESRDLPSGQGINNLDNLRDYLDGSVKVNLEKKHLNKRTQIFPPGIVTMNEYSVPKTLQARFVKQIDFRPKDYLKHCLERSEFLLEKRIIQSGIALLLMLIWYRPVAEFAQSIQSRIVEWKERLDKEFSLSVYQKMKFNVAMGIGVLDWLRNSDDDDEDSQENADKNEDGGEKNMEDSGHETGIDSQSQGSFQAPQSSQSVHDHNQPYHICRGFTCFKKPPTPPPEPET
Chain of Sphingosine 1-phosphate receptor 1 (P21453 whole entry): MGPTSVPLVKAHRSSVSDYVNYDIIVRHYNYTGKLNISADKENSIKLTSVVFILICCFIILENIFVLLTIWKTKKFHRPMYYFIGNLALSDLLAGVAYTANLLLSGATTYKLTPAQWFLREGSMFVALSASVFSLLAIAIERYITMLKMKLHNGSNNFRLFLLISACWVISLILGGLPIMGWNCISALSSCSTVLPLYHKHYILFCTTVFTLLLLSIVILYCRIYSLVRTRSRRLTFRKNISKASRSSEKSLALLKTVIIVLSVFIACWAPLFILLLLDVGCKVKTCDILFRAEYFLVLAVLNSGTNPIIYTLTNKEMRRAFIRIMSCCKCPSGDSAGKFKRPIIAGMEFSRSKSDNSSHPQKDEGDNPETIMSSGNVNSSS
Chain of Luciferin 4-monooxygenase (P08659 whole entry): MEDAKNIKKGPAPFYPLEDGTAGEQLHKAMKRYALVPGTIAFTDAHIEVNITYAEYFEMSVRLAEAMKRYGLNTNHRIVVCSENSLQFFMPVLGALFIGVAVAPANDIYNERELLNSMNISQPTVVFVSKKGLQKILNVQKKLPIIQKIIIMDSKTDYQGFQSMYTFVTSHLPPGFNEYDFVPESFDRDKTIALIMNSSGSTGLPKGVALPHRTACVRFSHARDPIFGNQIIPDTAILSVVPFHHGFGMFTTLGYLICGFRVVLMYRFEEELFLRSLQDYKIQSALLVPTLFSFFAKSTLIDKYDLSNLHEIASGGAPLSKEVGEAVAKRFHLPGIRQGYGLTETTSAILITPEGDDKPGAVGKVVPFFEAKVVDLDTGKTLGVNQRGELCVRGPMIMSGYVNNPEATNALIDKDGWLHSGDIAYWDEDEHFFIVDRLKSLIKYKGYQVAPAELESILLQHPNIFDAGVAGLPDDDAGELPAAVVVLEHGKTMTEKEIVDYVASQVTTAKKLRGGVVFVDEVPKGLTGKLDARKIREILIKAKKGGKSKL
Chain of Mothers against decapentaplegic homolog 3 (P84022 whole entry): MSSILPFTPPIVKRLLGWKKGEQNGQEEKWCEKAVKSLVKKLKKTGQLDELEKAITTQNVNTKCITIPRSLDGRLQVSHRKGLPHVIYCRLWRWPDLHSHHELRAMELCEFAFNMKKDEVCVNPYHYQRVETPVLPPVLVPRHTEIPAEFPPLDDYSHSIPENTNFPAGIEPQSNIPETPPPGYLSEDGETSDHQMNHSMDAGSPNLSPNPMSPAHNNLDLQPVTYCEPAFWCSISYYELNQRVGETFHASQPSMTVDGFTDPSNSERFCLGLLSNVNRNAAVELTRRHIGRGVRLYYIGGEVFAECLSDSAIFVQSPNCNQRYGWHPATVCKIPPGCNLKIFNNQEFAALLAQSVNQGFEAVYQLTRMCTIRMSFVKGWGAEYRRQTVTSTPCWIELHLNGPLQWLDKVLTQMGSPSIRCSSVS
Chain of Sphingosine 1-phosphate receptor 4 (O95977 whole entry): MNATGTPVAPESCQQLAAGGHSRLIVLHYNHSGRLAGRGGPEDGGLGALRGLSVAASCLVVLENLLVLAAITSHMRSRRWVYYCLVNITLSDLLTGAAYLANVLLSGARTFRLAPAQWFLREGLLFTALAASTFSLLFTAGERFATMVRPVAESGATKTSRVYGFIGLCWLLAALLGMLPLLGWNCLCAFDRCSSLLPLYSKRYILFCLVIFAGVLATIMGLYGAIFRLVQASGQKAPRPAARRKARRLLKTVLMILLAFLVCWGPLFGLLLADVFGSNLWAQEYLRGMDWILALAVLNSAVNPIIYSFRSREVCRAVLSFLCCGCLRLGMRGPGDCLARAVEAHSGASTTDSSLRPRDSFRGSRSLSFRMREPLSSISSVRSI

Compound: CCC(C)C1C(C#N)=C(N)Oc2[nH]nc(-c3ccccc3)c21 (stereo unspecified)
EC50 [1]: > 35.4 µM (not active)
IC50 (HEK293): 25 µM (not active)
EC50 [2]: > 35.4 µM (not active)

Compound: COc1cccc(NC(=O)COC(=O)/C=C/c2c(C)nn(-c3ccccc3)c2C)c1
IC50 [3]: > 55.7 µM (not active)
IC50 (Insulin-degrading enzyme): 8.29 µM (active)

IC50 (Leucine aminopeptidase): 19.9 µM (active)
IC50 (Aspartyl aminopeptidase): 0.975 µM (active)
IC50 (Procathepsin L): > 59.6 µM (not active)
Compound: O=C(CSc1nc[nH]n1)Nc1ccc([N+](=O)[O-])cc1Br

IC50 [4]: 14.6 µM (active)
Compound: Oc1ccccc1-c1nc(N2CCCC2)c2ccccc2n1

EC50 [5]: > 30 µM (not active)
Compound: CCC1(CC)NC(=O)N(CC(=O)OCC(=O)c2cc(C)n(Cc3ccccc3)c2C)C1=O

IC50 (Estrogen receptor beta): 33 µM (not active)
Compound: O=C(CCCn1c(=S)[nH]c2ccccc2c1=O)N1CCN(c2ccc(C(F)(F)F)cc2)CC1

Compound: Cc1ccnc(N2C(=O)c3cccc4c([N+](=O)[O-])ccc(c34)C2=O)c1
EC50 [6]: 4.58 µM (active)
EC50 [7]: > 30 µM (not active)
IC50 [8]: 1.62 µM (active)
IC50 [9]: 3.43 µM (active)
IC50 [10]: > 66 µM (inactive)
IC50 [11]: 23.4 µM (inactive)

IC50 (Large T antigen): 78.8 µM (active)
EC50 (Estrogen receptor): 16.1 µM (active)
Compound: CCOc1ccccc1N1CSC2=C(C#N)C(c3c(OC)ccc4ccccc34)CC(=O)N2C1 (stereo unspecified)

Compound: CCOP(=O)(c1ccccc1)c1nc(-c2ccccc2C)oc1N1CCCCC1 (stereo unspecified)
EC50 [12]: > 20 µM (not active)
EC50 [13]: > 20 µM (not active)

Compound: O=C(Nc1ccccc1)OCc1cc(-c2ccccc2Cl)on1
IC50 [14]: 9 µM (active)
EC50 [15]: > 112 µM (not active)
EC50 [16]: > 112 µM (not active)
IC50 [17]: 14.7 µM (not active)

IC50 (NADPH oxidase 1): > 17 µM (not active)
Compound: COc1ccc(-c2nc(-c3ccccc3)c(-c3ccccc3)[nH]2)cc1
